Experimental data taken from PubChem BioAssay (NCI).
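Tested at 5 concentrations; 48 h exposure; 96-well plates; endpoints linearly interpolated, else capped at highest concentration. TGI marks complete inhibition of growth.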

Columns and labels:
Assay in all cases: growth of human tumour cells (NCI), 48 h
SK-MEL-28 melanoma = tested on: SK-MEL-28 melanoma
XF 498 CNS = tested on: XF 498 CNS
KM20L2 colon = tested on: KM20L2 colon
SF-539 CNS = tested on: SF-539 CNS
HT29 colon = tested on: HT29 colon
EKVX NSCLC = tested on: EKVX NSCLC
NCI-H460 lung = tested on: NCI-H460 lung
RPMI-8226 leukemia = tested on: RPMI-8226 leukemia
RXF-631 renal = tested on: RXF-631 renal
M19-MEL melanoma = tested on: M19-MEL melanoma
DMS 273 small cell lung = tested on: DMS 273 small cell lung
UO-31 renal = tested on: UO-31 renal
SF-268 CNS = tested on: SF-268 CNS
SR leukemia = tested on: SR leukemia
SNB-75 CNS = tested on: SNB-75 CNS
786-0 renal = tested on: 786-0 renal
A498 renal = tested on: A498 renal
MOLT-4 leukemia = tested on: MOLT-4 leukemia
OVCAR-8 ovarian = tested on: OVCAR-8 ovarian
U251 CNS = tested on: U251 CNS
SK-MEL-5 melanoma = tested on: SK-MEL-5 melanoma
M14 melanoma = tested on: M14 melanoma
TK-10 renal = tested on: TK-10 renal
OVCAR-4 ovarian = tested on: OVCAR-4 ovarian
IGROV1 ovarian = tested on: IGROV1 ovarian
HCT-15 colon = tested on: HCT-15 colon
NCI-H226 lung = tested on: NCI-H226 lung
NCI-H23 lung = tested on: NCI-H23 lung
HCC-2998 colon = tested on: HCC-2998 colon
OVCAR-3 ovarian = tested on: OVCAR-3 ovarian
SK-OV-3 ovarian = tested on: SK-OV-3 ovarian
DLD-1 colon = tested on: DLD-1 colon
SN12C renal = tested on: SN12C renal
K-562 leukemia = tested on: K-562 leukemia
SW-620 colon = tested on: SW-620 colon
HOP-92 NSCLC = tested on: HOP-92 NSCLC
KM12 colon = tested on: KM12 colon
UACC-62 melanoma = tested on: UACC-62 melanoma
SNB-19 CNS = tested on: SNB-19 CNS
LXFL 529 NSCLC = tested on: LXFL 529 NSCLC
ACHN renal = tested on: ACHN renal
A549 NSCLC = tested on: A549 NSCLC
HL-60(TB) leukemia = tested on: HL-60(TB) leukemia
LOX IMVI melanoma = tested on: LOX IMVI melanoma
COLO 205 colon = tested on: COLO 205 colon
OVCAR-5 ovarian = tested on: OVCAR-5 ovarian
MALME-3M melanoma = tested on: MALME-3M melanoma
HCT-116 colon = tested on: HCT-116 colon
UACC-257 melanoma = tested on: UACC-257 melanoma
RXF 393 renal = tested on: RXF 393 renal
CAKI-1 renal = tested on: CAKI-1 renal
SF-295 CNS = tested on: SF-295 CNS
HOP-18 NSCLC = tested on: HOP-18 NSCLC
NCI-H522 lung = tested on: NCI-H522 lung
SK-MEL-2 melanoma = tested on: SK-MEL-2 melanoma
HOP-62 NSCLC = tested on: HOP-62 NSCLC
CCRF-CEM leukemia = tested on: CCRF-CEM leukemia
SNB-78 CNS = tested on: SNB-78 CNS
DMS 114 small cell lung = tested on: DMS 114 small cell lung

With `CN1CCC(SC2Cc3cc(Cl)ccc3Sc3ccccc32)CC1` (stereo unspecified) the TGI (SK-MEL-28 melanoma) was 4.78 µM, the TGI (XF 498 CNS) was 30 µM and the TGI (KM20L2 colon) was 17.8 µM. The TGI (SF-539 CNS) was 33.8 µM, the TGI (HT29 colon) was 15.3 µM and the TGI (EKVX NSCLC) was 34 µM. The TGI (NCI-H460 lung) was 31.4 µM, the TGI (RPMI-8226 leukemia) was 23.3 µM and the TGI (RXF-631 renal) was 27.9 µM. The TGI (M19-MEL melanoma) was 25.3 µM, the TGI (DMS 273 small cell lung) was 26.2 µM and the TGI (UO-31 renal) was 16.7 µM. It also gave a TGI (SF-268 CNS) of 25.5 µM, a TGI (SR leukemia) of 23.1 µM and a TGI (SNB-75 CNS) of 22.2 µM. For the same molecule, the TGI (786-0 renal) was 27.7 µM, the TGI (A498 renal) was 31.6 µM and the TGI (MOLT-4 leukemia) was 20.3 µM. For the same molecule, the TGI (OVCAR-8 ovarian) was 31.5 µM, the TGI (U251 CNS) was 27.9 µM and the TGI (SK-MEL-5 melanoma) was 26.8 µM. It also gave a TGI (M14 melanoma) of 15.7 µM, a TGI (TK-10 renal) of 26.5 µM and a TGI (OVCAR-4 ovarian) of 29 µM. It also gave a TGI (IGROV1 ovarian) of 29.6 µM, a TGI (HCT-15 colon) of 31.1 µM and a TGI (NCI-H226 lung) of 30 µM. The TGI (NCI-H23 lung) was 27.9 µM, the TGI (HCC-2998 colon) was 21.3 µM and the TGI (OVCAR-3 ovarian) was 28.2 µM. It also gave a TGI (SK-OV-3 ovarian) of 30.4 µM, a TGI (DLD-1 colon) of 28.2 µM and a TGI (SN12C renal) of 28.5 µM. The TGI (K-562 leukemia) was 21.9 µM, the TGI (SW-620 colon) was 30.9 µM and the TGI (HOP-92 NSCLC) was 26.9 µM. For the same molecule, the TGI (KM12 colon) was 23.2 µM, the TGI (UACC-62 melanoma) was 11.4 µM and the TGI (SNB-19 CNS) was 29 µM. For the same molecule, the TGI (LXFL 529 NSCLC) was 26.3 µM, the TGI (ACHN renal) was 28.6 µM and the TGI (A549 NSCLC) was 29.7 µM. It also gave a TGI (HL-60(TB) leukemia) of 19.5 µM, a TGI (LOX IMVI melanoma) of 25.7 µM and a TGI (COLO 205 colon) of 27.2 µM. The TGI (OVCAR-5 ovarian) was 30.3 µM, the TGI (MALME-3M melanoma) was 28.8 µM and the TGI (HCT-116 colon) was 22.5 µM. The TGI (UACC-257 melanoma) was 21.3 µM, the TGI (RXF 393 renal) was 17.1 µM and the TGI (CAKI-1 renal) was 23.7 µM. For the same molecule, the TGI (SF-295 CNS) was 30.7 µM, the TGI (HOP-18 NSCLC) was 26.7 µM and the TGI (NCI-H522 lung) was 28.4 µM.
`CC(C)=CC1CC(=O)C1(C)Sc1ccccc1` (stereo unspecified) gave a TGI (SK-MEL-28 melanoma) greater than 100 µM, a TGI (XF 498 CNS) of 95.7 µM and a TGI (KM20L2 colon) greater than 100 µM. It also gave a TGI (SF-539 CNS) greater than 100 µM, a TGI (HT29 colon) of 66.6 µM and a TGI (EKVX NSCLC) greater than 100 µM. The TGI (NCI-H460 lung) was 54.4 µM, the TGI (RPMI-8226 leukemia) was 45.9 µM and the TGI (RXF-631 renal) was greater than 100 µM. The TGI (M19-MEL melanoma) was 72.1 µM, the TGI (UO-31 renal) was greater than 100 µM and the TGI (SF-268 CNS) was greater than 100 µM. For the same molecule, the TGI (SR leukemia) was 41.4 µM, the TGI (SNB-75 CNS) was greater than 100 µM and the TGI (786-0 renal) was greater than 100 µM. The TGI (A498 renal) was greater than 100 µM, the TGI (MOLT-4 leukemia) was 92.1 µM and the TGI (OVCAR-8 ovarian) was greater than 100 µM. It also gave a TGI (U251 CNS) greater than 100 µM, a TGI (SK-MEL-5 melanoma) greater than 100 µM and a TGI (M14 melanoma) greater than 100 µM. It also gave a TGI (TK-10 renal) greater than 100 µM, a TGI (OVCAR-4 ovarian) greater than 100 µM and a TGI (IGROV1 ovarian) greater than 100 µM. It also gave a TGI (HCT-15 colon) of 34.8 µM, a TGI (NCI-H226 lung) greater than 100 µM and a TGI (NCI-H23 lung) greater than 100 µM. The TGI (HCC-2998 colon) was greater than 100 µM, the TGI (OVCAR-3 ovarian) was greater than 100 µM and the TGI (SK-OV-3 ovarian) was greater than 100 µM. It also gave a TGI (DLD-1 colon) greater than 100 µM, a TGI (SN12C renal) greater than 100 µM and a TGI (K-562 leukemia) of 59.4 µM. For the same molecule, the TGI (HOP-92 NSCLC) was 87 µM, the TGI (KM12 colon) was greater than 100 µM and the TGI (SK-MEL-2 melanoma) was greater than 100 µM. For the same molecule, the TGI (UACC-62 melanoma) was greater than 100 µM, the TGI (SNB-19 CNS) was greater than 100 µM and the TGI (LXFL 529 NSCLC) was greater than 100 µM. The TGI (ACHN renal) was greater than 100 µM, the TGI (A549 NSCLC) was greater than 100 µM and the TGI (HL-60(TB) leukemia) was 46.7 µM. It also gave a TGI (LOX IMVI melanoma) of 36.1 µM, a TGI (HOP-62 NSCLC) greater than 100 µM and a TGI (COLO 205 colon) of 65.1 µM. It also gave a TGI (OVCAR-5 ovarian) greater than 100 µM, a TGI (CCRF-CEM leukemia) of 45 µM and a TGI (MALME-3M melanoma) greater than 100 µM. It also gave a TGI (HCT-116 colon) greater than 100 µM, a TGI (SNB-78 CNS) greater than 100 µM and a TGI (UACC-257 melanoma) greater than 100 µM. It also gave a TGI (RXF 393 renal) of 72 µM, a TGI (CAKI-1 renal) greater than 100 µM and a TGI (SF-295 CNS) greater than 100 µM. For the same molecule, the TGI (DMS 114 small cell lung) was 32.6 µM, the TGI (HOP-18 NSCLC) was greater than 100 µM and the TGI (NCI-H522 lung) was 69.1 µM.
